Source: patent US9604998B2, “Inhibitors of the renal outer medullary potassium channel” (MERCK SHARP & DOHME CORP., priority 2013, dated 2017)
pIC50: −log10 of the molar value. Structures can show the parent of a compound that is named as a salt. Where two headings read alike, the source gives them in different places.

Experiments:
Kir1.1 (ROMK1) = Kir1.1 (ROMK1) (Homo sapiens (Human), UniProt P48048); test: Electrophysiology Assay (whole cell voltage clamp, IonWorks Quattro); type: cell-based; settings: block during voltage step to 0 mV
Chain of Kir1.1 (ROMK1) (P48048 whole entry, species assumed): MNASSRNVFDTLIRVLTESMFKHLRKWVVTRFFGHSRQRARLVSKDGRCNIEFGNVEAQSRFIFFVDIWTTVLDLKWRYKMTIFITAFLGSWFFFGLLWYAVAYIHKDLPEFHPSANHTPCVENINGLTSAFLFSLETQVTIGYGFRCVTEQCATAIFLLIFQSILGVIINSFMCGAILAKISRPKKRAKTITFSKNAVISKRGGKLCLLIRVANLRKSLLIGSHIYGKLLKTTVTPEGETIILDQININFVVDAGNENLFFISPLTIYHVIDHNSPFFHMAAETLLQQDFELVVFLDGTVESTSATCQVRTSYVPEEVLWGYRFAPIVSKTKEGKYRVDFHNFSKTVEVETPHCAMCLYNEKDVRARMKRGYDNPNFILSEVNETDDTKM
Protocol: Chinese hamster ovary cells stably expressing Kir1.1 channels were maintained in T-75 flasks in cell culture media in a humidified 10% CO2 incubator at 37° C. Prior to an experiment, Kir1.1 expression was induced by overnight incubation with 1 mM sodium butyrate. […] After centrifugation, the cell pellet was resuspended in approximately 4.0 mL of bath solution and placed in the IonWorks instrument. The intracellular solution consisted of (in mM): 80 K gluconate, 40 KCl, 20 KF, 3.2 MgCl2, 3 EGTA, 5 Hepes, pH 7.4. Electrical access to the cytoplasm was achieved by perforation in 0.13 mg/mL amphotericin B for 4 min. […] Voltage protocols and current recordings were performed using the IonWorks HT software/hardware system. Currents were sampled at 1 kHz. No correction for liquid junction potentials was used. The test pulse, consisting of a 100 ms step to 0 mV from a holding potential of −70 mV, followed by a 100 ms voltage ramp from −70 mV to +70 mV, was applied before and after a 6 min compound incubation period. Test compounds were prepared by diluting DMSO stock solutions into the bath solution at 3× the final concentration and placed in the instrument in 96-well polypropylene plates. Current amplitudes were measured using the IonWorks software.

hROMK (hKir1.1) = hROMK (hKir1.1) (Homo sapiens (Human), UniProt P48048); test: Thallium Flux Assay (ROMK channel functional thallium flux, FLIPR-Tetra); type: cell-based
Chain of hROMK (hKir1.1) (P48048 whole entry): as the sequence (P48048 whole entry, species assumed) above
Protocol: HEK293 cells stably expressing hROMK (hKir1.1) were grown at 37° C. in a 10% CO2 humidified incubator in complete growth media: Dulbecco's Modified Eagle Medium supplemented with non-essential amino acids, Penicillin/Streptomycin/Glutamine, G418 and FBS. At >80% confluency, aspirate the media from the flask and rinse with 10 mL Calcium/Magnesium-free PBS. […] To dislodge the cell, gently bang the side of the flask with your hand. Triturate the cells completely and then transfer the cells to 25 mL complete media. Centrifuge at 1,500 rpm for 6 min followed by resuspension in complete growth media and determine cell concentration.
Compound Buffer (per microplate): 20 mL Probenecid/Assay Buffer; 0.3 mM ouabain (10 mM ouabain in water can be stored in amber bottle/aluminum foil at room temperature); Test compound
Stimulant Buffer (prepared at 5× final concentration in 1× FluxOR™ Chloride-Free Buffer): 7.5 mM Thallium sulfate and […] (to give a final assay concentration of 3 mM Thallium/0.3 mM Potassium). Store at 4° C. when not in use. If kept sterile, this solution is good for months.
The ROMK channel functional thallium flux assay is performed in 384 wells, using the FLIPR-Tetra instrument. HEK-hKir1.1 cells are seeded in Poly-D-Lysine microplates and kept in a 37° C.-10% CO2 incubator overnight. On the day of the experiment, the growth media is replaced with the FluxOR™ reagent loading buffer and incubated, protected from light, at ambient temperature (23-25° C.) for 90 min. The loading buffer is replaced with assay buffer±test compound followed by 30 min incubation at ambient temperature, where the Thallium/Potassium stimulant is added to the microplate.
1. Seed HEK-hKir1.1 cells (50 μl at 20,000 cells/well) in 384-well PDL coated Microplates
2. Allow cells to adhere overnight in humidified 37° C./10% CO2 incubator
3. Completely remove cell growth media from microplate and replace with 25 μl loading buffer
4. Incubate Microplate at room temperature, protected form light, for 90 min
5. Remove loading buffer and replace with 25 μl 1× Assay Buffer±test compound.
6. Incubate microplate at room temperature, protected from light, for 30 min
7. […] Excitation=400 nm, Emission=460 & 580 nm. Collect data for ˜10 min.
The fluorescence intensity of wells containing 3 μM of a standard control ROMK inhibitor of the present invention is used to define the ROMK-sensitive component of thallium flux. Fluorescence in the presence of test compounds is normalized to control values to provide % fluorescence change.

[1] = Chinese hamster ovary cells stably expressing Kir1.1, read-out: Electrophysiology IC50
[2] = HEK293 cells stably expressing hROMK (hKir1.1), read-out: Thallium Flux IC50
[3] = Electrophysiology IC50, Chinese hamster ovary cells stably expressing Kir1.1

Row | Structure (SMILES) | pIC50 (Kir1.1 (ROMK1); [1]) | pIC50 (hROMK (hKir1.1); [2]) | pIC50 (Kir1.1 (ROMK1); [3]) | pIC50 (hROMK (hKir1.1); Thallium Flux IC50, HEK293 cells stably expressing hROMK (hKir1.1))
1 | COc1cc([C@H]2CN3CCN(C[C@H](O)c4ccc5c(c4C)COC5=O)C[C@@H]3CO2)ccc1C#N [Example 1, 4-{(3S,9aR)-8-[(2R)-2-hydroxy-2-(4-methyl-1-oxo-1,3-dihydro-2-benzofuran-5-yl)ethyl]octahydropyrazino[2,1-c][1,4]oxazin-3-yl}-2-methoxybenzonitrile] | 6.96 | 6.66 | – | –
2 | Cc1cc(-n2cnnn2)ncc1C(O)CN1CCN2C[C@@H](c3ccc(F)c(C#N)c3C)OC[C@@H]2C1 (single isomer, unassigned) [Example 20] | – | 6.52 | 6.62 | –
3 | Cc1c([C@@H](O)CN2CCN3C[C@@H](c4ccc5c(c4)COC5=O)OC[C@@H]3C2)ccc2c1COC2=O [Example 11, (3R,9aS)-8-[(2R)-2-hydroxy-2-(4-methyl-1-oxo-1,3-dihydro-2-benzofuran-5-yl)ethyl]-3-(1-oxo-1,3-dihydro-2-benzofuran-5-yl)octahydropyrazino[2,1-c][1,4]oxazin-5-ium trifluoroacetatep] | 7.22 | 6.44 | – | –
4 | COc1cc(C(O)CN2CCN3C[C@H](c4ccc5c(c4C)COC5=O)OC[C@H]3C2)c(F)cc1C#N (stereo partly drawn) [Example 36, (3S,9aR)-8-[2-(4-cyano-2-fluoro-5-methoxyphenyl)-2-hydroxyethyl]-3-(4-methyl-1-oxo-1,3-dihydro-2-benzofuran-5-yl)octahydropyrazino[2,1-c][1,4]oxazin-5-ium chloride] | 6.92 | 6.41 | – | –
5 | COc1cc([C@@H]2CN3CCN(CCc4ccc5c(c4C)COC5=O)C[C@@H]3CO2)ccc1C#N [Example 76] | 7.05 | 6.36 | – | –
6 | COc1c(CCN2CCN3C[C@H](c4ccc5c(c4C)COC5=O)OC[C@H]3C2)ccc(C#N)c1F [Example 94] | 6.85 | 6.62 | – | –
7 | Cc1cc2c(cc1C(O)CN1CCN3C[C@H](c4ccc(F)c(C#N)c4C)OC[C@@H]3C1)COC2=O (single isomer, unassigned) [Example 27, trifluoroacetate] | – | – | 6.62 | 6.51
8 | COc1cc(CCN2CCN3C[C@@H](c4ccc5c(c4C)COC5=O)OC[C@@H]3C2)ccc1C#N [Example 56, 2-methoxy-4-(2-((3R,9aS)-3-(4-methyl-1-oxo-1,3-dihydroisobenzofuran-5-yl)hexahydropyrazino[2,1-c][1,4]oxazin-8(1H)-yl)ethyl)benzonitrile] | 7.15 | 7.40 | – | –
9 | COc1c(CCN2CCN3C[C@H](c4ccc5c(c4C)COC5=O)OC[C@@H]3C2)ccc(C#N)c1F [Example 96] | 7.10 | 6.68 | – | –
10 | Cc1c([C@H](O)CN2CCN3C[C@@H](c4ccc5c(c4C)COC5=O)OC[C@@H]3C2)ccc2c1COC2=O [Example 2, 5-((S)-1-hydroxy-2-((3R,9aS)-3-(4-methyl-1-oxo-1,3-dihydroisobenzofuran-5-yl)hexahydropyrazino[2,1-c][1,4]oxazin-8(1H)-yl)ethyl)-4-methylisobenzofuran-1(3H)-one] | 7.10 | 6.64 | – | –
11 | Cc1c([C@@H]2CN3CCN(CC(O)c4ccc(-n5cnnn5)nc4)C[C@H]3CO2)ccc(F)c1C#N (single isomer, unassigned) [Example 16] | 7.10 | 6.25 | – | –
12 | Cc1c([C@@H]2CN3CCN(CC(O)c4ccc5c(c4C4CC4)COC5=O)C[C@H]3CO2)ccc2c1COC2=O (single isomer, unassigned) [Example 51] | 6.64 | 6.40 | – | –
13 | Cc1c(CCN2CCN3C[C@H](c4ccc5c(c4)COC5=O)OC[C@@H]3C2)ccc2c1COC2=O [Example 70] | 7.52 | 6.92 | – | –
14 | COc1cc([C@H]2CN3CCN(C[C@H](O)c4ccc5c(c4C)COC5=O)C[C@@H]3CO2)cc(F)c1C#N [Example 53, (3S,9aR)-3-(4-cyano-3-fluoro-5-methoxyphenyl)-8-[(2R)-2-hydroxy-2-(4-methyl-1-oxo-1,3-dihydro-2-benzofuran-5-yl)ethyl]octahydropyrazino[2,1-c][1,4]oxazin-8-ium chloride] | 7.10 | 6.62 | – | –
15 | Cc1c(C(O)CN2CCN3C[C@@H](c4ccc5c(c4C)COC5=O)OC[C@@H]3C2)ccc(F)c1C#N (stereo partly drawn) [Example 13, (3R,9aS)-8-[2-(3-cyano-4-fluoro-2-methylphenyl)-2-hydroxyethyl]-3-(4-methyl-1-oxo-1,3-dihydro-2-benzofuran-5-yl)octahydropyrazino[2,1-c][1,4]oxazin-5-ium trifluoroacetate] | 6.66 | 6.57 | – | –
16 | COc1cc(C(O)CN2CCN3C[C@@H](c4ccc5c(c4C)COC5=O)OC[C@@H]3C2)c(F)cc1C#N (stereo partly drawn) [Example 15, (3R,9aS)-8-[2-(4-cyano-2-fluoro-5-methoxyphenyl)-2-hydroxyethyl]-3-(4-methyl-1-oxo-1,3-dihydro-2-benzofuran-5-yl)octahydropyrazino[2,1-c][1,4]oxazin-5-ium chloride] | 6.54 | 6.17 | – | –
17 | Cc1c(CCN2CCN3C[C@@H](c4ccc(F)c(C#N)c4)OC[C@@H]3C2)ccc2c1COC2=O [Example 72] | 6.80 | 6.82 | – | –
18 | Cc1c([C@@H]2CN3CCN(CC(O)c4ccc5c(c4)C[C@H](C)OC5=O)C[C@H]3CO2)ccc2c1COC2=O (single isomer, unassigned) [Example 44] | 6.89 | 6.57 | – | –
19 | COc1cc(CCN2CCN3C[C@H](c4ccc5c(c4C)COC5=O)OC[C@H]3C2)ccc1C#N [Example 61] | 6.92 | 6.48 | – | –
20 | Cc1c([C@@H](O)CN2CCN3C[C@H](c4ccc(C#N)c(F)c4)OC[C@H]3C2)ccc2c1COC2=O [Example 28, (3S,9aR)-3-(4-cyano-3-fluorophenyl)-8-[(2R)-2-hydroxy-2-(4-methyl-1-oxo-1,3-dihydro-2-benzofuran-5-yl)ethyl]octahydropyrazino[2,1-c][1,4]oxazin-8-ium chloride] | 7.05 | 6.72 | – | –
21 | Cc1c(C(C)CN2CCN3C[C@@H](c4ccc5c(c4C)COC5=O)OC[C@@H]3C2)ccc2c1COC2=O (some centres unmarked) [Example 90] | 6.64 | 6.96 | – | –
22 | COc1c([C@@H]2CN3CCN(C[C@H](O)c4ccc5c(c4C)COC5=O)C[C@@H]3CO2)ccc(C#N)c1F [Example 32, (3R,9aR)-3-(4-cyano-3-fluoro-2-methoxyphenyl)-8-[(2R)-2-hydroxy-2-(4-methyl-1-oxo-1,3-dihydro-2-benzofuran-5-yl)ethyl]octahydropyrazino[2,1-c][1,4]oxazin-8-ium chloride] | 6.74 | 6.55 | – | –
23 | Cc1c([C@@H]2CN3CCN(CCc4ccc5c(c4)COC5=O)C[C@H]3CO2)ccc2c1COC2=O [Example 64] | 7.40 | 7.40 | – | –
24 | COc1cc([C@H]2CN3CCN(CC(O)c4ccc5c(c4C)COC5=O)C[C@H]3CO2)ccc1C#N (stereo partly drawn) [Example 4, (3S,9aS)-3-(4-cyano-3-methoxyphenyl)-8-[2-hydroxy-2-(4-methyl-1-oxo-1,3-dihydro-2-benzofuran-5-yl)ethyl]octahydropyrazino[2,1-c][1,4]oxazin-5-ium chloride] | 7.10 | 6.37 | – | –
25 | COc1cc(CCN2CCN3C[C@H](c4ccc5c(c4C)COC5=O)OC[C@H]3C2)c(F)cc1C#N [Example 97] | 6.55 | 6.46 | – | –
